Test results: ChEMBL document CHEMBL1201862, “PubChem BioAssay data set” (2004)
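Test compounds were applied to cells in 96-well plates for 48 hours at 5 doses. Abbreviation: GI50, concentration required for 50% inhibition of growth.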 Active and inactive are the calls of the source. Cut-off read from the data, not from the text of the source: active = GI50 up to about 1.1 µM and inactive = higher.

Tests used:
Test in all cases: DTP human tumour cell line panel, 48 h
[1] = system: HCT-15
[2] = system: SNB-19
[3] = system: OVCAR-5
[4] = system: RPMI-8226
[5] = system: CCRF-CEM
[6] = system: SK-MEL-2
[7] = system: BT-549
[8] = system: U-251
[9] = system: SNB-75
[10] = system: M14
[11] = system: UACC-62
[12] = system: K562
[13] = system: ACHN
[14] = system: RXF 393
[15] = system: A498
[16] = system: MOLT-4
[17] = system: DU-145
[18] = system: UO-31
[19] = system: UACC-257
[20] = system: OVCAR-4
[21] = system: NCI-H23
[22] = system: A549
[23] = system: Malme-3M
[24] = system: HT-29
[25] = system: LOX IMVI
[26] = system: SN12C
[27] = system: CAKI-1
[28] = system: T47D
[29] = system: SW-620
[30] = system: OVCAR-3
[31] = system: OVCAR-8
[32] = system: HCC 2998
[33] = system: SK-MEL-28
[34] = system: SF-539
[35] = system: SF-268
[36] = system: COLO 205
[37] = system: 786-0
[38] = system: SK-OV-3
[39] = system: EKVX
[40] = system: MDA-MB-231
[41] = system: KM12
[42] = system: Hs-578T
[43] = system: HCT-116
[44] = system: NCI-H460
[45] = system: MDA-MB-435
[46] = system: NCI-H226
[47] = system: MDA-N
[48] = system: HOP-62
[49] = system: NCI/ADR-RES
[50] = system: PC-3
[51] = system: MCF7
[52] = system: SF-295
[53] = system: SR
[54] = system: SK-MEL-5
[55] = system: HL-60
[56] = system: TK-10
[57] = system: NCI-H522
[58] = system: IGROV-1
[59] = system: HOP-92

Measured: GI50

O=C1c2ccccc2-c2c1c(-c1ccc(F)cc1)nc1ccc3ccccc3c21
inactive: [2] > 100 µM | [3] > 100 µM | [4] > 100 µM | [5] > 100 µM | [6] > 100 µM | [7] > 100 µM | [8] > 100 µM | [9] > 100 µM | [10] > 100 µM | [11] > 100 µM | [12] > 100 µM | [13] > 100 µM | [14] > 100 µM | [15] > 100 µM | [16] > 100 µM | [17] > 100 µM | [18] > 100 µM | [19] > 100 µM | [20] > 100 µM | [21] > 100 µM | [22] > 100 µM | [23] > 100 µM | [24] > 100 µM | [25] > 100 µM | [26] > 100 µM | [27] > 100 µM | [28] > 100 µM | [29] > 100 µM | [30] > 100 µM | [31] > 100 µM | [32] > 100 µM | [33] > 100 µM | [34] > 100 µM | [35] > 100 µM | [36] > 100 µM | [37] > 100 µM | [38] > 100 µM | [39] > 100 µM | [40] > 100 µM | [41] > 100 µM | [42] > 100 µM | [43] > 100 µM | [44] > 100 µM | [45] > 100 µM | [46] > 100 µM | [47] > 100 µM | [48] > 100 µM | [49] > 100 µM | [50] > 100 µM | [51] > 100 µM | [52] > 100 µM
> 100 µM: [1]

NC(=O)c1ccc(/N=N/O)nc1
inactive: [2] > 100 µM | [53] > 100 µM | [3] > 100 µM | [5] > 100 µM | [7] > 100 µM | [54] > 100 µM | [8] > 100 µM | [9] > 100 µM | [10] > 100 µM | [11] > 100 µM | [12] > 100 µM | [13] > 100 µM | [15] > 100 µM | [16] > 100 µM | [17] > 100 µM | [18] > 100 µM | [19] > 100 µM | [20] > 100 µM | [21] > 100 µM | [55] > 100 µM | [22] > 100 µM | [24] > 100 µM | [26] > 100 µM | [27] > 100 µM | [28] > 100 µM | [29] > 100 µM | [30] > 100 µM | [31] > 100 µM | [32] > 100 µM | [33] > 100 µM | [56] > 100 µM | [34] > 100 µM | [35] > 100 µM | [36] > 100 µM | [57] > 100 µM | [37] > 100 µM | [38] > 100 µM | [39] > 100 µM | [40] > 100 µM | [41] > 100 µM | [42] > 100 µM | [43] > 100 µM | [44] > 100 µM | [46] > 100 µM | [47] > 100 µM | [48] > 100 µM | [49] > 100 µM | [50] > 100 µM | [51] > 100 µM | [52] > 100 µM | [58] > 100 µM
active: [23] 0.0755 µM
> 100 µM: [1]

COC(=O)C1CC2(CCC1=O)Cc1ccccc1C2=O (stereo not given)
inactive: [2] > 100 µM | [53] 37.8 µM | [3] > 100 µM | [4] 65.5 µM | [5] 50.4 µM | [6] > 100 µM | [7] > 100 µM | [54] > 100 µM | [8] > 100 µM | [9] > 100 µM | [10] > 100 µM | [11] > 100 µM | [12] 42.3 µM | [13] > 100 µM | [14] 14.5 µM | [16] 48.5 µM | [17] > 100 µM | [18] > 100 µM | [19] > 100 µM | [20] > 100 µM | [21] > 100 µM | [55] > 100 µM | [22] > 100 µM | [23] > 100 µM | [24] > 100 µM | [25] > 100 µM | [26] > 100 µM | [27] > 100 µM | [28] > 100 µM | [29] > 100 µM | [31] > 100 µM | [32] > 100 µM | [33] > 100 µM | [56] > 100 µM | [34] > 100 µM | [35] > 100 µM | [36] > 100 µM | [57] 67.8 µM | [37] > 100 µM | [38] > 100 µM | [39] 89.5 µM | [40] > 100 µM | [41] > 100 µM | [42] > 100 µM | [43] 87.7 µM | [44] > 100 µM | [46] 47.4 µM | [47] > 100 µM | [48] > 100 µM | [49] 99.5 µM | [50] > 100 µM | [51] > 100 µM | [52] 82.2 µM | [58] > 100 µM
> 100 µM: [1]

COC(=O)C1(C)C=CC(=O)C2(C)C1C(O)C1OC3CC(c4ccoc4)C(C)=C3C1(C)C2CC(=O)O (stereo not given)
> 100 µM: [1]
inactive: [2] > 100 µM | [3] > 100 µM | [4] > 100 µM | [5] > 100 µM | [6] > 100 µM | [7] > 100 µM | [54] > 100 µM | [8] > 100 µM | [9] > 100 µM | [10] > 100 µM | [11] > 100 µM | [13] > 100 µM | [15] > 100 µM | [16] > 100 µM | [17] > 100 µM | [18] > 100 µM | [19] > 100 µM | [20] > 100 µM | [21] > 100 µM | [55] > 100 µM | [22] > 100 µM | [23] > 100 µM | [25] > 100 µM | [26] > 100 µM | [27] > 100 µM | [28] > 100 µM | [29] > 100 µM | [30] > 100 µM | [31] > 100 µM | [32] > 100 µM | [33] > 100 µM | [56] > 100 µM | [34] > 100 µM | [35] > 100 µM | [36] > 100 µM | [57] > 100 µM | [37] > 100 µM | [38] > 100 µM | [39] > 100 µM | [40] > 100 µM | [41] > 100 µM | [42] > 100 µM | [59] > 100 µM | [43] > 100 µM | [44] > 100 µM | [45] > 100 µM | [47] > 100 µM | [49] > 100 µM | [50] > 100 µM | [51] > 100 µM | [52] > 100 µM | [58] > 100 µM

CC(=O)Oc1ccc2c(c1)O/C(=C\c1ccc(O)cc1)C2=O
inactive: [2] > 100 µM | [53] > 100 µM | [4] > 100 µM | [5] > 100 µM | [7] > 100 µM | [54] > 100 µM | [8] > 100 µM | [9] > 100 µM | [10] > 100 µM | [11] > 100 µM | [12] > 100 µM | [13] > 100 µM | [14] > 100 µM | [16] > 100 µM | [17] > 100 µM | [18] > 100 µM | [19] > 100 µM | [20] > 100 µM | [21] > 100 µM | [55] > 100 µM | [22] > 100 µM | [26] > 100 µM | [27] > 100 µM | [28] > 100 µM | [29] > 100 µM | [30] > 100 µM | [31] > 100 µM | [32] > 100 µM | [33] > 100 µM | [56] > 100 µM | [34] > 100 µM | [35] > 100 µM | [36] > 100 µM | [57] 28.4 µM | [37] > 100 µM | [38] > 100 µM | [39] > 100 µM | [40] > 100 µM | [41] > 100 µM | [42] 27.5 µM | [43] > 100 µM | [44] > 100 µM | [45] > 100 µM | [46] > 100 µM | [47] > 100 µM | [48] > 100 µM | [49] > 100 µM | [50] > 100 µM | [51] > 100 µM | [52] > 100 µM | [58] > 100 µM
> 100 µM: [1]
